{"source": "patent US20110098177A1", "about": "“METHODS AND COMPOSITIONS OF PLANT MICRONUTRIENTS” (NOVUS INTERNATIONAL INC., priority 2006, published 2011)", "format_in_all_cases": "in vivo", "key": {"Florida-47 tomato [1]": {"test_system": "Florida-47 tomato", "conditions": "1 week after treatment, scale 0 = no visible injury, 10 = plant death", "summary_of_the_method": "(§1)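 Florida-47 tomato and Aristotle bell pepper transplants in 2-gal pots with low-nutrient medium (pH 5.36), drip-irrigated; products at three rates in deionized water plus non-ionic surfactant sprayed on newly matured leaves at 3 and 7 WAT. Toxicity scored at 4 WAT (0=no damage, 10=death); foliar tissue analysed at 6 WAT; marketable fruit harvested 4 times (tomato).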"}, "Aristotle bell pepper [2]": {"test_system": "Aristotle bell pepper", "conditions": "1 week after treatment, scale 0 = no visible injury, 10 = plant death", "summary_of_the_method": "as §1"}, "Tygress tomato plants [3]": {"test_system": "Tygress tomato plants", "assay": "Foliar nutrient concentration at 7 WAT, greenhouse tomato spring 2009 (Examples 13-15)", "conditions": "7 WAT", "experimental": "(§2) The following experiments were performed in a green house during the spring of 2009 at GCREC, Balm, University of Florida. Crop set-up, procedures and variables were as follows.\n(§3) Transplants of ‘Tygress’ tomato plants were planted in 2-gallon pots filled with commercial planting medium with nutrient concentration of Fe, Zn, Mn, Cu being negligible and insufficient for crop growth. Irrigation and non-micronutrient fertilizer were provided daily through microsprinklers at recommended rates for tomato production in Florida. No pesticides were used. Treatments were as described in Tables 42, 43, and 44 below. BIOX-Cu was compared to Cu-sulfate, BIOX-EDC, and BIOX-O; and BIOX-Fe was compared to Fe-sulfate and BIOX-EDF. BIOX-MEZ is Ca-HMTBA.\n(§4) Treatments were applied at 6 WAT (weeks after transplanting) using a water volume of 200 mL/plant. Deionized water was used for foliar applications. A non-ionic surfactant was added. Other nutrients were applied as appropriate under non-limiting conditions.\nFoliar tissue nutrient analysis was performed at 3 WAT (i.e., 3 weeks before treatment) and 7 WAT (i.e., 1 weeks after treatment) on the non-applied newest leaves. The concentrations of N, P, K, Mg, Ca, B, Zn, Mn, Fe, and Cu in the foliar tissue were determined by a commercial laboratory. There were no significant differences between the foliar nutrient concentrations of any of the treatment groups prior to treatment.\n(§5) Experimental design was a randomized complete block design with 6 replications. Data were analyzed using a general linear model, and means were separated using an LSD test at the 5% significance level."}, "Aristotle bell pepper [4]": {"test_system": "Aristotle bell pepper", "assay": "Marketable yield per plant, greenhouse Fall 2007, bell pepper", "experimental": "(§6) The following experiments were performed in a green house during the fall of 2007 at GCREC, Balm, University of Florida. Fifteen products, at 3 different application rates were examined. The plot size was 2-gallon pots. Crop set-up, procedures and variables were as follows.\n(§7) Transplants of ‘Florida-47’ tomato and ‘Aristotle’ bell pepper plants in the 4-true leaf stage (about 6 inches tall) were planted in 2-gal pots on Aug. 27, 2007. Pots were filled with a commercially available planting medium. This medium was selected based on the mineral composition of the products to be applied without providing significant nutritional inputs to the crops. Irrigation was provided with drip lines delivering between 0.50 and 0.33 gal/day/pot for tomato and bell pepper, respectively, and the crops were irrigated three times per day. No foliar pesticides were necessary.\n(§8) There were four control treatments corresponding to each target micronutrient in which non-Fe, non-Mn, non-Zn or non-Cu pots received all other essential nutrients under non-limiting conditions.\n(§9) Treatments were applied at three rates (high, medium and low) obtained from the estimated concentration of Zn, Fe, Cu, and Mn foliarly-applied in tomato and bell pepper in field situations (Table 1). Products were weighed and dissolved in 200 ml of deionized water with a non-ionic surfactant and applied to the newly-matured open leaves of each crop at 3 and 7 weeks after transplant (WAT). Treated pots were isolated during application to avoid cross-contamination of other treatments.\n(§10) Medium nutrient concentration was determined 1 week before treatment. The mineral composition of the medium was 26.8 ppm NH4—N, 49 ppm NO3—N, 15.8 ppm P, 91.2 ppm K, 82.3 ppm Ca, 58.2 ppm Mg, 23.9 ppm Na, 125.6 ppm S, 1.33 ppm Fe, 0.39 ppm Mn, 0.35 ppm Zn, 0.05 pp, Cu, 0.04 ppm B, 0 ppm Mo, 0.73 ppm Al, and 12.1 ppm Si. The pH of the medium was 5.36 and the electric conductivity was 1.38 mS/cm. The foliar tissue analysis was performed at 6 WAT and the concentration of N, P, K, Mg, Ca, S, B, Zn, Mn, Fe, and Cu was determined by a commercial laboratory. Plant toxicity was determined at 4 WAT by using a 0-10 visual scale, where 0=no visible damage and 10=total plant death. Marketable fruit weight was collected 2 times in bell pepper and 4 times in tomato following USDA standards.\n(§11) Data were analyzed using a general linear model, and means were separated using orthogonal contrasts at the 5% significance level."}, "Tygress tomato plants [5]": {"test_system": "Tygress tomato plants", "assay": "Yields of tomato fruits, greenhouse spring 2009 (Examples 13-15)", "experimental": "as §2, §3, §4\nMarketable fruit were collected three times during the growing season, starting at 10 WAT (4 weeks after the initial treatment). Tomato fruit was graded as marketable and non-marketable. Marketable fruit was sized as extra-large, large, and medium. Non-marketable fruit were harvested and number and weight recorded but not sized.\nas §5"}, "Tygress tomato plants [6]": {"test_system": "Tygress tomato plants", "conditions": "for Toxicity (0-10): 0=no injury, 10=plant death", "experimental": "as §2, §3, §4\nToxicity of the treatments was assessed by rating foliar tissue using a visual scale, where 0=no injury and 10=plant death.\nas §5"}, "Florida-47 tomato [7]": {"test_system": "Florida-47 tomato", "assay": "Marketable yield per plant, greenhouse Fall 2007, tomato", "experimental": "as §6, §7, §8, §9, §10, §11"}, "[8]": {"conditions": "foliar application at 3 and 7 WAT, rates not separated"}}, "note": "Like-named read-outs stand apart in the source and are kept apart here. Marks after values point to notes of the source that are not given here.", "data": [{"smiles": "CSCCC(O)C(=O)[O-].CSCCC(O)C(=O)[O-].[Ca+2]", "note": "(stereo not shown) [BIOX-MEZ, Ca-HMTBA]", "values": [{"measurement": "Tomato toxicity", "setting": "Florida-47 tomato [1]; High rate", "value": 0}, {"measurement": "Tomato toxicity", "setting": "Florida-47 tomato [1]; Low rate", "value": 0}, {"measurement": "Tomato toxicity", "setting": "Florida-47 tomato [1]; Medium rate", "value": 0}, {"measurement": "Pepper toxicity", "setting": "Aristotle bell pepper [2]; High rate", "value": 0}, {"measurement": "Pepper toxicity", "setting": "Aristotle bell pepper [2]; Low rate", "value": 0}, {"measurement": "Pepper toxicity", "setting": "Aristotle bell pepper [2]; Medium rate", "value": 0}, {"measurement": "Nutrient concentration in tomato leaves: Ca", "setting": "Tygress tomato plants [3]; 0.6 lb/acre", "value": 1.3, "unit": "b %"}, {"measurement": "Nutrient concentration in tomato leaves: K", "setting": "Tygress tomato plants [3]; 0.6 lb/acre", "value": 3.8, "unit": "%"}, {"measurement": "Nutrient concentration in tomato leaves: Mg", "setting": "Tygress tomato plants [3]; 0.6 lb/acre", "value": 0.6, "unit": "%"}, {"measurement": "Nutrient concentration in tomato leaves: N", "setting": "Tygress tomato plants [3]; 0.6 lb/acre", "value": 3.8, "unit": "%"}, {"measurement": "Nutrient concentration in tomato leaves: P", "setting": "Tygress tomato plants [3]; 0.6 lb/acre", "value": 0.6, "unit": "%"}, {"measurement": "Nutrient concentration in tomato leaves: Ca", "setting": "Tygress tomato plants [3]; 1.2 lb/acre", "value": 1.3, "unit": "b %"}, {"measurement": "Nutrient concentration in tomato leaves: K", "setting": "Tygress tomato plants [3]; 1.2 lb/acre", "value": 4.4, "unit": "%"}, {"measurement": "Nutrient concentration in tomato leaves: Mg", "setting": "Tygress tomato plants [3]; 1.2 lb/acre", "value": 0.6, "unit": "%"}, {"measurement": "Nutrient concentration in tomato leaves: N", "setting": "Tygress tomato plants [3]; 1.2 lb/acre", "value": 4.2, "unit": "%"}, {"measurement": "Nutrient concentration in tomato leaves: P", "setting": "Tygress tomato plants [3]; 1.2 lb/acre", "value": 0.7, "unit": "%"}, {"measurement": "Nutrient concentration in tomato leaves: Ca", "setting": "Tygress tomato plants [3]; 2.5 lb/acre", "value": 1.3, "unit": "b %"}, {"measurement": "Nutrient concentration in tomato leaves: K", "setting": "Tygress tomato plants [3]; 2.5 lb/acre", "value": 3.9, "unit": "%"}, {"measurement": "Nutrient concentration in tomato leaves: Mg", "setting": "Tygress tomato plants [3]; 2.5 lb/acre", "value": 0.5, "unit": "%"}, {"measurement": "Nutrient concentration in tomato leaves: N", "setting": "Tygress tomato plants [3]; 2.5 lb/acre", "value": 4.4, "unit": "%"}, {"measurement": "Nutrient concentration in tomato leaves: P", "setting": "Tygress tomato plants [3]; 2.5 lb/acre", "value": 0.7, "unit": "%"}, {"measurement": "Nutrient concentration in tomato leaves: Ca", "setting": "Tygress tomato plants [3]; 4.8 lb/acre", "value": 1.2, "unit": "b %"}, {"measurement": "Nutrient concentration in tomato leaves: K", "setting": "Tygress tomato plants [3]; 4.8 lb/acre", "value": 3.9, "unit": "%"}, {"measurement": "Nutrient concentration in tomato leaves: Mg", "setting": "Tygress tomato plants [3]; 4.8 lb/acre", "value": 0.6, "unit": "%"}, {"measurement": "Nutrient concentration in tomato leaves: N", "setting": "Tygress tomato plants [3]; 4.8 lb/acre", "value": 3.8, "unit": "%"}, {"measurement": "Nutrient concentration in tomato leaves: P", "setting": "Tygress tomato plants [3]; 4.8 lb/acre", "value": 0.6, "unit": "%"}, {"measurement": "Nutrient concentration in tomato leaves: Ca", "setting": "Tygress tomato plants [3]; 7.2 lb/acre", "value": 1.7, "unit": "a %"}, {"measurement": "Nutrient concentration in tomato leaves: K", "setting": "Tygress tomato plants [3]; 7.2 lb/acre", "value": 4.6, "unit": "%"}, {"measurement": "Nutrient concentration in tomato leaves: Mg", "setting": "Tygress tomato plants [3]; 7.2 lb/acre", "value": 0.6, "unit": "%"}, {"measurement": "Nutrient concentration in tomato leaves: N", "setting": "Tygress tomato plants [3]; 7.2 lb/acre", "value": 4.7, "unit": "%"}, {"measurement": "Nutrient concentration in tomato leaves: P", "setting": "Tygress tomato plants [3]; 7.2 lb/acre", "value": 0.7, "unit": "%"}, {"measurement": "Foliar Ca concentration, statement", "setting": "Tygress tomato plants [3]; BIOX-MEZ at a rate of 7.2 lb/acre", "value": "significantly increased"}, {"measurement": "Foliar levels of N, P, K, and Mg, statement", "setting": "Tygress tomato plants [3]; BIOX-MEZ treatment", "value": "not affected"}, {"measurement": "Marketable yield per plant, Pepper", "setting": "Aristotle bell pepper [4]; [8]", "value": "3.2* lb/plant"}, {"measurement": "Bell pepper yield compared with control (in words)", "setting": "Aristotle bell pepper [4]; foliar applications, P<0.05", "value": "significantly increased"}, {"measurement": "Marketable yield", "setting": "Tygress tomato plants [5]; 0.6 lb/acre", "value": 1100, "unit": "g/plant"}, {"measurement": "Marketable yield", "setting": "Tygress tomato plants [5]; 1.2 lb/acre", "value": 875, "unit": "g/plant"}, {"measurement": "Marketable yield", "setting": "Tygress tomato plants [5]; 2.5 lb/acre", "value": 925, "unit": "g/plant"}, {"measurement": "Marketable yield", "setting": "Tygress tomato plants [5]; 4.8 lb/acre", "value": 1000, "unit": "g/plant"}, {"measurement": "Marketable yield", "setting": "Tygress tomato plants [5]; 7.2 lb/acre", "value": 900, "unit": "g/plant"}, {"measurement": "Marketable or non-marketable yields, statement", "setting": "Tygress tomato plants [5]; BIOX-MEZ treatment", "value": "no change in marketable or non-marketable yields"}, {"measurement": "Toxicity (0-10)", "setting": "Tygress tomato plants [6]; 0.6 lb/acre", "value": 0}, {"measurement": "Toxicity (0-10)", "setting": "Tygress tomato plants [6]; 1.2 lb/acre", "value": 0}, {"measurement": "Toxicity (0-10)", "setting": "Tygress tomato plants [6]; 2.5 lb/acre", "value": 1}, {"measurement": "Toxicity (0-10)", "setting": "Tygress tomato plants [6]; 4.8 lb/acre", "value": 1}, {"measurement": "Toxicity (0-10)", "setting": "Tygress tomato plants [6]; 7.2 lb/acre", "value": 1}, {"measurement": "Toxic effects on the tomato plants, statement", "setting": "Tygress tomato plants [6]; BIOX-MEZ application", "value": "no major toxic effects"}, {"measurement": "Marketable yield per plant, Tomato", "setting": "Florida-47 tomato [7]; [8]", "value": "3.0* lb/plant"}, {"measurement": "Tomato yield compared with control (in words)", "setting": "Florida-47 tomato [7]; foliar applications, P<0.05", "value": "significantly increased"}]}]}
